Test results published in US20120121591A1 (priority 2009, published 2012).

Experiments:
Type in all cases: cell-based
[1] = system: IL-2 secretion from T cells in human whole blood; conditions: read-out: WB (IL-2) IC50 (nM, Avg)
[2] = system: IFN-g secretion from T cells in human whole blood; conditions: read-out: WB (IFNg) IC50 (nM, Avg)
hKv1.3 = hKv1.3 (Homo sapiens, UniProt P22001); assay: cell-based; conditions: Kv1.3 (IWQ) IC50 (nM, Avg)
Sequence of hKv1.3 (P22001 whole entry): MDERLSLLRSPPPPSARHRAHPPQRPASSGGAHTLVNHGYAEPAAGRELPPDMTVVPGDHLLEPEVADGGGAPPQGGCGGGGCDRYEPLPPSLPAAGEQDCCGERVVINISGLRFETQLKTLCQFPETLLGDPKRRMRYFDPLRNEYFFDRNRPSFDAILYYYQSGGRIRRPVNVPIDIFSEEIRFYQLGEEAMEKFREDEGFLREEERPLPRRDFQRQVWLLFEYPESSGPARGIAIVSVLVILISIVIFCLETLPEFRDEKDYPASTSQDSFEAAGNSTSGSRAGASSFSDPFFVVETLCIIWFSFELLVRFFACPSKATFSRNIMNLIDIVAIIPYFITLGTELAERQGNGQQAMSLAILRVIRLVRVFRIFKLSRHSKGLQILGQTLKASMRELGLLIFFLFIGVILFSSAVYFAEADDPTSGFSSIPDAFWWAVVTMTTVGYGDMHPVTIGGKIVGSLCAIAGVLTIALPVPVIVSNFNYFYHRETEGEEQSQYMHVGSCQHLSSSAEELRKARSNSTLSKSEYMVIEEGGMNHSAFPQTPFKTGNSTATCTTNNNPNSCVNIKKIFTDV

| Structure (SMILES) | IC50 [1] [nM] | IC50 [2] [nM] | IC50 (hKv1.3) [nM] |
| --- | --- | --- | --- |
| CC[C@H](C)[C@@H]1NC(=O)[C@@H](NC(=O)[C@H](CO)NC(=O)[C@@H](N)CCCNC(=N)N)CSSC[C@@H](C(N)=O)NC(=O)[C@H]([C@@H](C)O)NC(=O)CNC(=O)[C@@H]2CSSC[C@@H]3NC(=O)[C@H](CCCCN)NC(=O)[C@H](Cc4ccccc4)NC(=O)[C@H](C)NC(=O)[C@H]([C@@H](C)O)NC(=O)[C@H](CSSC[C@H](NC(=O)[C@H](Cc4ccccc4)NC(=O)[C@H](Cc4ccccc4)NC(=O)[C@H](CC(C)C)NC(=O)[C@H](CCCNC(=N)N)NC(=O)[C@H](Cc4ccc(O)cc4)NC(=O)[C@H](CCCCN)NC(=O)[C@H](CCSC)NC(=O)[C@H](CO)NC(=O)[C@H](Cc4c[nH]cn4)NC(=O)[C@H](CCCCN)NC3=O)C(=O)N[C@@H](CCCCN)C(=O)N[C@@H](CCCCN)C(=O)N[C@@H]([C@@H](C)O)C(=O)N2)NC(=O)[C@H](CCCNC(=N)N)NC(=O)[C@H](CO)NC(=O)[C@H](CCCCN)NC(=O)[C@@H]2CCCN2C(=O)[C@H]([C@@H](C)CC)NC(=O)[C@H]([C@@H](C)O)NC(=O)[C@H](CC(=O)O)NC1=O [[Lys16, 29;Phe26]ShK-amide] | 1.42 | 1.36 | 0.542 |
| CCCC[C@@H]1NC(=O)[C@H](CO)NC(=O)[C@H](Cc2c[nH]cn2)NC(=O)[C@H](CCCNC(=N)N)NC(=O)[C@@H]2CSSC[C@@H]3NC(=O)[C@H]([C@@H](C)O)NC(=O)[C@H](CCCNC(=N)N)NC(=O)[C@H](CCCCN)NC(=O)[C@H](CSSC[C@H](NC(=O)[C@H](CCCNC(=N)N)NC(=O)[C@H](CO)NC(=O)[C@H](CCCCN)NC(=O)[C@@H]4CCCN4C(=O)[C@H]([C@@H](C)CC)NC(=O)[C@H]([C@@H](C)O)NC(=O)[C@H](CC(=O)O)NC(=O)[C@H](CCC(=O)O)NC(=O)[C@@H](NC(=O)[C@H](CO)NC(=O)[C@@H](N)CCCNC(=N)N)CSSC[C@@H](C(N)=O)NC(=O)[C@H]([C@@H](C)O)NC(=O)CNC3=O)C(=O)N[C@@H]([C@@H](C)O)C(=O)N[C@@H](C)C(=O)N[C@@H](Cc3ccccc3)C(=O)N[C@@H](CCCCN)C(=O)N2)NC(=O)[C@H](Cc2ccccc2)NC(=O)[C@H](CO)NC(=O)[C@H](CC(C)C)NC(=O)[C@H](CCCNC(=N)N)NC(=O)[C@H](Cc2ccc(O)cc2)NC(=O)[C@H](CCCCN)NC1=O | 1.96 | 1.33 | 0.269 |
| CC[C@H](C)[C@@H]1NC(=O)[C@@H](NC(=O)[C@H](CCCCN)NC(=O)[C@@H](N)CCCNC(=N)N)CSSC[C@@H](C(=O)O)NC(=O)[C@H]([C@@H](C)O)NC(=O)CNC(=O)[C@@H]2CSSC[C@@H]3NC(=O)[C@H](CCC(N)=O)NC(=O)[C@H](Cc4ccccc4)NC(=O)[C@H](C)NC(=O)[C@H]([C@@H](C)O)NC(=O)[C@H](CSSC[C@H](NC(=O)[C@H](Cc4ccccc4)NC(=O)[C@H](CO)NC(=O)[C@H](CC(C)C)NC(=O)[C@H](CCCNC(=N)N)NC(=O)[C@H](Cc4ccc(O)cc4)NC(=O)[C@H](CCCCN)NC(=O)[C@H](CCSC)NC(=O)[C@H](CO)NC(=O)[C@H](Cc4c[nH]cn4)NC(=O)[C@H](CCCCN)NC3=O)C(=O)N[C@@H](CCCNC(=N)N)C(=O)N[C@@H](CCCCN)C(=O)N[C@@H]([C@@H](C)O)C(=O)N2)NC(=O)[C@H](CCCNC(=N)N)NC(=O)[C@H](CO)NC(=O)[C@H](CCCCN)NC(=O)[C@@H]2CCCN2C(=O)[C@H]([C@@H](C)CC)NC(=O)[C@H]([C@@H](C)O)NC(=O)[C@H](CC(=O)O)NC1=O [[Lys2]ShK] | 0.099 | 0.093 | 0.149 |
| CC[C@H](C)[C@@H]1NC(=O)[C@@H](NC(=O)[C@H](CO)NC(=O)[C@@H](N)CCCNC(=N)N)CSSC[C@@H](C(=O)O)NC(=O)[C@H]([C@@H](C)O)NC(=O)CNC(=O)[C@@H]2CSSC[C@@H]3NC(=O)[C@H](CCC(N)=O)NC(=O)[C@H](Cc4ccccc4)NC(=O)[C@H](C)NC(=O)[C@H]([C@@H](C)O)NC(=O)[C@H](CSSC[C@H](NC(=O)[C@H](Cc4ccccc4)NC(=O)[C@H](CO)NC(=O)[C@H](CC(C)C)NC(=O)[C@H](CCCNC(=N)N)NC(=O)[C@H](Cc4ccc(O)cc4)NC(=O)[C@H](CCCCN)NC(=O)[C@H](CCSC)NC(=O)[C@H](CO)NC(=O)[C@H](Cc4c[nH]cn4)NC(=O)[C@H](CCCCN)NC3=O)C(=O)N[C@@H](CCCNC(=N)N)C(=O)N[C@@H](CCCCN)C(=O)N[C@@H]([C@@H](C)O)C(=O)N2)NC(=O)[C@H](CCCNC(=N)N)NC(=O)[C@H](CO)NC(=O)[C@H](CCCCN)NC(=O)[C@@H]2CCCN2C(=O)[C@H](Cc2cccc3ccccc23)NC(=O)[C@H]([C@@H](C)O)NC(=O)[C@H](CC(=O)O)NC1=O [[1-Nal7]ShK] | 11.6 | 18 | 0.699 |
| CC[C@H](C)[C@@H]1NC(=O)[C@@H](NC(=O)[C@H](CO)NC(=O)[C@@H](N)CCCNC(=N)N)CSSC[C@@H](C(=O)O)NC(=O)[C@H]([C@@H](C)O)NC(=O)CNC(=O)[C@@H]2CSSC[C@@H]3NC(=O)[C@H](CCC(N)=O)NC(=O)[C@H](Cc4ccccc4)NC(=O)[C@H](C)NC(=O)[C@H]([C@@H](C)O)NC(=O)[C@H](CSSC[C@H](NC(=O)[C@H](Cc4ccccc4)NC(=O)[C@H](CO)NC(=O)[C@H](CC(C)C)NC(=O)[C@H](CCCNC(=N)N)NC(=O)[C@H](Cc4ccc(O)cc4)NC(=O)[C@H](CCCCN)NC(=O)[C@H](CCSC)NC(=O)[C@H](CO)NC(=O)[C@H](Cc4c[nH]cn4)NC(=O)[C@H](CCCCN)NC3=O)C(=O)N[C@@H](CCCNC(=N)N)C(=O)N[C@@H](CCCCN)C(=O)N[C@@H]([C@@H](C)O)C(=O)N2)NC(=O)[C@H](Cc2cccc3ccccc23)NC(=O)[C@H](CO)NC(=O)[C@H](CCCCN)NC(=O)[C@@H]2CCCN2C(=O)[C@H]([C@@H](C)CC)NC(=O)[C@H]([C@@H](C)O)NC(=O)[C@H](CC(=O)O)NC1=O [[1-Nal11]ShK] | 1.14 | 1.65 | 0.922 |
| CC[C@H](C)[C@@H]1NC(=O)[C@@H](NC(=O)[C@H](CO)NC(=O)[C@@H](N)CCCNC(=N)N)CSSC[C@@H](C(=O)O)NC(=O)[C@H]([C@@H](C)O)NC(=O)CNC(=O)[C@@H]2CSSC[C@@H]3NC(=O)[C@H](CCC(N)=O)NC(=O)[C@H](Cc4ccccc4)NC(=O)[C@H](C)NC(=O)[C@H]([C@@H](C)O)NC(=O)[C@H](CSSC[C@H](NC(=O)[C@H](Cc4ccccc4)NC(=O)[C@H](CO)NC(=O)[C@H](CC(C)C)NC(=O)[C@H](CCCNC(=N)N)NC(=O)[C@H](Cc4ccc(O)cc4)NC(=O)[C@H](CCCCN)NC(=O)[C@H](CCSC)NC(=O)[C@H](CO)NC(=O)[C@H](Cc4c[nH]cn4)NC(=O)[C@H](CCCCN)NC3=O)C(=O)N[C@@H](CCCNC(=N)N)C(=O)N[C@@H](CCCCN)C(=O)N[C@@H]([C@@H](C)O)C(=O)N2)NC(=O)[C@H](CCCNC(=N)N)NC(=O)[C@H](CO)NC(=O)[C@H](C)NC(=O)[C@@H]2CCCN2C(=O)[C@H]([C@@H](C)CC)NC(=O)[C@H]([C@@H](C)O)NC(=O)[C@H](CC(=O)O)NC1=O [[Ala9]ShK] | 0.053 | 0.103 | 0.116 |
| CC[C@H](C)[C@@H]1NC(=O)[C@@H](NC(=O)[C@H](CO)NC(=O)[C@@H](N)CCCNC(=N)N)CSSC[C@@H](C(=O)O)NC(=O)[C@H]([C@@H](C)O)NC(=O)CNC(=O)[C@@H]2CSSC[C@@H]3NC(=O)[C@H](CCCCN)NC(=O)[C@H](Cc4ccccc4)NC(=O)[C@H](C)NC(=O)[C@H]([C@@H](C)O)NC(=O)[C@H](CSSC[C@H](NC(=O)[C@H](Cc4ccccc4)NC(=O)[C@H](CO)NC(=O)[C@H](CC(C)C)NC(=O)[C@H](CCCNC(=N)N)NC(=O)[C@H](Cc4ccc(O)cc4)NC(=O)[C@H](CCCCN)NC(=O)[C@H](C)NC(=O)[C@H](CO)NC(=O)[C@H](Cc4c[nH]cn4)NC(=O)[C@H](CCCCN)NC3=O)C(=O)N[C@@H](CCCNC(=N)N)C(=O)N[C@@H](CCCCN)C(=O)N[C@@H]([C@@H](C)O)C(=O)N2)NC(=O)[C@H](CCCNC(=N)N)NC(=O)[C@H](CO)NC(=O)[C@H](CCCCN)NC(=O)[C@@H]2CCCN2C(=O)[C@H]([C@@H](C)CC)NC(=O)[C@H]([C@@H](C)O)NC(=O)[C@H](CC(=O)O)NC1=O [[Lys16,A1a21]ShK] | 0.872 | 1.33 | 0.076 |
| CCCC[C@@H]1NC(=O)[C@H](CO)NC(=O)[C@H](Cc2c[nH]cn2)NC(=O)[C@H](CCCCN)NC(=O)[C@@H]2CSSC[C@@H]3NC(=O)[C@H]([C@@H](C)O)NC(=O)[C@H](CCCCN)NC(=O)[C@H](CCCNC(=N)N)NC(=O)[C@H](CSSC[C@H](NC(=O)[C@H](CCCNC(=N)N)NC(=O)[C@H](CO)NC(=O)[C@H](CCCCN)NC(=O)[C@@H]4CCCN4C(=O)[C@H]([C@@H](C)CC)NC(=O)[C@H]([C@@H](C)O)NC(=O)[C@H](CC(=O)O)NC(=O)[C@H]([C@@H](C)CC)NC(=O)[C@@H](NC(=O)[C@H](CO)NC(=O)[C@@H](N)CCCNC(=N)N)CSSC[C@@H](C(N)=O)NC(=O)[C@H]([C@@H](C)O)NC(=O)CNC3=O)C(=O)N[C@@H]([C@@H](C)O)C(=O)N[C@@H](C)C(=O)N[C@@H](Cc3ccccc3)C(=O)N[C@@H](CC(N)=O)C(=O)N2)NC(=O)[C@H](Cc2ccccc2)NC(=O)[C@H](CO)NC(=O)[C@H](CC(C)C)NC(=O)[C@H](CCCNC(=N)N)NC(=O)[C@H](Cc2ccc(O)cc2)NC(=O)[C@H](CCCCN)NC1=O [[Asn16,Nle21]ShK-amide] | 0.689 | 1.07 | 0.171 |
| CC[C@H](C)[C@@H]1NC(=O)[C@@H](NC(=O)[C@H](CO)NC(=O)[C@@H](N)CCCNC(=N)N)CSSC[C@@H](C(=O)O)NC(=O)[C@H]([C@@H](C)O)NC(=O)CNC(=O)[C@@H]2CSSC[C@@H]3NC(=O)[C@H](CCC(N)=O)NC(=O)[C@H](Cc4ccccc4)NC(=O)[C@H](C)NC(=O)[C@H](CCCNC(=N)N)NC(=O)[C@H](CSSC[C@H](NC(=O)[C@H](Cc4ccccc4)NC(=O)[C@H](CO)NC(=O)[C@H](CC(C)C)NC(=O)[C@H](CCCNC(=N)N)NC(=O)[C@H](Cc4ccc(O)cc4)NC(=O)[C@H](CCCCN)NC(=O)[C@H](CCSC)NC(=O)[C@H](CO)NC(=O)[C@H](Cc4c[nH]cn4)NC(=O)[C@H](CCCCN)NC3=O)C(=O)N[C@@H](CCCNC(=N)N)C(=O)N[C@@H](CCCCN)C(=O)N[C@@H]([C@@H](C)O)C(=O)N2)NC(=O)[C@H](CCCNC(=N)N)NC(=O)[C@H](CO)NC(=O)[C@H](CCCCN)NC(=O)[C@@H]2CCCN2C(=O)[C@H]([C@@H](C)CC)NC(=O)[C@H]([C@@H](C)O)NC(=O)[C@H](CC(=O)O)NC1=O [[Arg13]ShK] | 0.503 | 0.629 | 0.149 |
